The values below come from patent US20230303510A1, “CYCLIZED ACETAMIDO DERIVATIVES AS DNA POLYMERASE THETA INHIBITORS” (Ideaya Biosciences, Inc., priority 2020, published 2023).

For orientation: IC50 means the point on the concentration scale where inhibition reaches its midpoint. Higher therefore signals lower potency.

The target of test [1] is T1, Pol theta (residues 1819-2590) (Homo sapiens, UniProt O75417).
T1 construct: Pol theta polymerase domain (residues 1819-2590) at a final concentration of 4 nM
T1 sequence (O75417 1819-2590): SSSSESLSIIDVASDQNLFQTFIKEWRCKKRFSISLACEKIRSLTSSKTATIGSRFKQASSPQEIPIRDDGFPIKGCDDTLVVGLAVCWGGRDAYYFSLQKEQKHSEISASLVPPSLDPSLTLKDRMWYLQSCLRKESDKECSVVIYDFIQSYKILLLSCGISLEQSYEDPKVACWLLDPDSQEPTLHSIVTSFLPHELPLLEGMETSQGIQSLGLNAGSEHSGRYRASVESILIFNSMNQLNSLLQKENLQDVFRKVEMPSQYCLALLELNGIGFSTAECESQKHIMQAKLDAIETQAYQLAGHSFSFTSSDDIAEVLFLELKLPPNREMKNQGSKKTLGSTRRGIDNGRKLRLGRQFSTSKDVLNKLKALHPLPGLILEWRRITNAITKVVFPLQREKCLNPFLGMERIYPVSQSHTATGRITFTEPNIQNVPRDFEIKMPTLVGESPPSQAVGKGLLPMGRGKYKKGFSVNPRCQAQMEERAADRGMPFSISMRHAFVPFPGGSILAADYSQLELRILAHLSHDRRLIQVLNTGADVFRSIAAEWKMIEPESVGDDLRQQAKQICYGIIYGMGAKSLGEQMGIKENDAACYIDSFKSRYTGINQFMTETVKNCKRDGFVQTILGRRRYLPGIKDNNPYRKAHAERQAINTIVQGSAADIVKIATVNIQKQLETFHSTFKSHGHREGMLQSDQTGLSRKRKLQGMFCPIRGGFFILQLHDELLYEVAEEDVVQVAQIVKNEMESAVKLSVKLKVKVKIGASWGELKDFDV
The test is described as follows: PPi assay (inhibition of polymerase activity of Pol theta, PPiLite luminescence). It is filed as biochemical. Conditions: Pol theta 2.8 nM; luminescence kinetic mode 90 min. Here is the method: The ability of the compounds of Formula (I) or Formula (II) to inhibit polymerase activity of Pol theta was determined using the PPi assay as set forth below.
A mixture of template DNA strand (SEQ ID NO:4: 5′ ATTACTGACCTCATACTTCTGCCCTTCCATGTTCTGTGCCCTCCTTCC 3′) and primer DNA strand (SEQ ID NO:5: 5′ GGA AGG AGG GCA CAG AAC 3′) was annealed in 10 mM Tris-HCl pH 8.0, […] buffer to form the primed DNA substrate. A 10-point dilution series of compounds were used in a 384 well format for the inhibition assay. Pol theta (residues 1819-2590) (2.8 nM) in assay buffer (20 mM Tris-HCl pH 7.8, 50 mM KCl, 10 mM MgCl2, 1 mM DTT, 0.01% BSA, 0.01% Tween-20) was transferred to the test wells (10 uL), except for the low control wells. The plate was then incubated at room temperature for 15 mins. An equal volume (10 μL) of dNTP substrate (40 μM) and primed DNA substrate (800 nM) in assay buffer was added to all the test wells. 20 μL of PPi detection reagent (PPiLite inorganic pyrophosphate assay, Lonzo) was then added to all test wells. The plate was then centrifuged at 1000 rpm for 1 min. The reaction was monitored in a Tecan M1000 Pro plate reader in luminescence kinetic mode for 90 min. The high control (DMSO with enzyme) with high luminescence represents no inhibition of the polymerase reaction while the low control (DMSO with buffer) with low luminescence represents full inhibition of the polymerase activity. Slope of the reaction progress curves were used to calculate the rate of polymerization. The rates were used to determine the percent inhibition using a four-parameter inhibition model to generate IC50, Hill slope, maximum inhibition, and minimum inhibition.

Test [2] concerns the target T2, Pol theta polymerase domain (residues 1819-2590) (Homo sapiens, UniProt O75417).
T2 construct: Pol theta polymerase domain (residues 1819-2590) at a final concentration of 4 nM
T2 sequence (O75417 1819-2590): T1 sequence (O75417 1819-2590)
The test is described as follows: Primer extension assay (inhibition of polymerase activity of Pol theta, molecular beacon fluorescence). The format is biochemical. Conditions: Pol theta polymerase domain 4 nM; fluorescence change over 30 min. The protocol: The ability of the compounds of Formula (I) or Formula (II) to inhibit polymerase activity of Pol theta was determined using the primer extension assay as set forth below.
A mixture of 20 uL of Pol theta polymerase domain (residues 1819-2590) at a final concentration of 4 nM in assay buffer (20 m M TRIS, pH 7.80, 50 mM KCl, 10 mM MgCl2, 1 mM DTT, 0.01% BSA, 0.01% Tween20) was added to test compounds (11-point dilution series of test compounds) except the low control wells without test compounds. The above enzyme and test compound inhibitor mixture was then incubated at room temperature for 15 min. An equal volume (20 μl) of dNTP substrate mixture (48 μM) and primed molecular beacon DNA (obtained by annealing template SEQ ID NO:2: (5′-CCTTCCTCCCGTGTCTTG-TACCTTCCCGTCA-GGAGGAAGG-3′) with 5′-TAMRA and 3′-BHQ and primer DNA (SEQ ID NO:3; 5′-GACGGGAAGG-3′) in 10 mM Tris-HCl pH 8.0, 100 mM NaCl buffer) (96 nM) in assay buffer was added to all the test wells. The inhibition activity was measured by monitoring the fluorescence change over 30 min at 535 nm upon excitation at 485 nm. The high control (DMSO with enzyme) with high fluorescence intensity represents no inhibition of polymerase reaction while the low control (DMSO with buffer) with low fluorescence intensity represents full inhibition of polymerase activity. Slope of the reaction progress curves were used to calculate the rate of polymerization. The rates were used to determine the percent inhibition using a four-parameter inhibition model to generate IC50, Hill slope and max inhibition.

Take `CN(C(=O)[C@@H]1CCCN1c1cc(C(F)(F)F)cc(C(F)(F)F)n1)c1ccc(F)cc1` [1.003, (S)-1-(4,6-bis(trifluoromethyl)pyridin-2-yl)-N-(4-fluorophenyl)-N-methylpyrrolidine-2-carboxamide]: the IC50 in test [1] and in test [2] was not above 200 nM throughout.

Consider `CC(=O)N[C@@H]1C[C@@H](C(=O)N(C)c2ccc(F)cc2)N(c2cc(C(F)(F)F)cc(C(F)(F)F)n2)C1` [1.022, (2S,4R)-4-acetamido-1-(4,6-bis(trifluoromethyl)pyridin-2-yl)-N-(4-fluorophenyl)-N-methylpyrrolidine-2-carboxamide], for which the IC50 in test [1] and in test [2] was not above 200 nM each time.

On to `CN(C(=O)[C@@H]1[C@@H](O)CCN1c1cc(C(F)(F)F)cc(C(F)(F)F)n1)c1ccc(F)cc1` [1.019, (2S,3S)-1-(4,6-bis(trifluoromethyl)pyridin-2-yl)-N-(4-fluorophenyl)-3-hydroxy-N-methylpyrrolidine-2-carboxamide], for which the IC50 in test [1] and in test [2] was not above 200 nM in each case.

For the compound `C[C@@H]1CC[C@@H](C(=O)N(C)c2ccc(F)cc2)N1c1cc(C(F)(F)F)cc(C(F)(F)F)n1` [1.023, (2S,5R)-1-(4,6-bis(trifluoromethyl)pyridin-2-yl)-N-(4-fluorophenyl)-N,5-dimethylpyrrolidine-2-carboxamide], the IC50 in test [1] lay within 500 to 1000 nM.

For `CN(C(=O)[C@H]1CCCN1c1cc(C(F)(F)F)cc(C(F)(F)F)n1)c1ccc(F)cc1` [1.002, (R)-1-(4,6-bis(trifluoromethyl)pyridin-2-yl)-N-(4-fluorophenyl)-N-methylpyrrolidine-2-carboxamide], the IC50 in test [1] and in test [2] was 1000 to 10000 nM each time.

`CN(C(=O)C1COCCN1c1cc(C(F)(F)F)cc(C(F)(F)F)n1)c1ccc(F)cc1` (stereo not shown) [1.006, 4-(4,6-bis(trifluoromethyl)pyridin-2-yl)-N-(4-fluorophenyl)-N-methylmorpholine-3-carboxamide]: the half-maximal inhibitory concentration (IC50) was 1000 to 10000 nM in test [1] and not above 200 nM in test [2].

As to `CC(=O)N[C@H]1C[C@@H](C(=O)N(C)c2ccc(F)cc2)N(c2cc(C(F)(F)F)cc(C(F)(F)F)n2)C1` [1.020, (2S,4S)-4-acetamido-1-(4,6-bis(trifluoromethyl)pyridin-2-yl)-N-(4-fluorophenyl)-N-methylpyrrolidine-2-carboxamide], the IC50 in test [1] and in test [2] was not above 200 nM throughout.

Take `Fc1ccc(-c2cccnc2[C@H]2CCCN2c2cc(C(F)(F)F)cc(C(F)(F)F)n2)cc1` [1.027, (R)-2-(2-(3-(4-fluorophenyl)pyridin-2-yl)pyrrolidin-1-yl)-4,6-bis(trifluoromethyl)pyridine]: the IC50 in test [1] lay within 1000 to 10000 nM.

As to `CN(C(=O)C1CCCN1c1nc(C(F)(F)F)cc(C(F)(F)F)c1C#N)c1ccc(F)cc1` (stereo not shown) [1.024, 1-(3-cyano-4,6-bis(trifluoromethyl)pyridin-2-yl)-N-(4-fluorophenyl)-N-methylpyrrolidine-2-carboxamide], the IC50 in test [1] and in test [2] was not above 200 nM each time.
